Measured values reported in PubChem BioAssay (NCI).
Values joined by “and” are separate entries in the source; they are usually repeats but may differ in a detail not shown here. Identical values can stand only once.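 These data come from cells grown in 96-well plates and exposed to compound for 48 hours at five concentrations. GI50 is the concentration that inhibits growth by half. TGI marks complete inhibition of growth.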

What was measured:
Experiment in all cases: NCI-60 cell line screen, 48 h
NCI/ADR-RES ovarian = test system: NCI/ADR-RES ovarian
IGROV1 ovarian = test system: IGROV1 ovarian
SF-268 CNS = test system: SF-268 CNS
OVCAR-5 ovarian = test system: OVCAR-5 ovarian
HT29 colon = test system: HT29 colon
M14 melanoma = test system: M14 melanoma
SK-MEL-2 melanoma = test system: SK-MEL-2 melanoma
SK-MEL-28 melanoma = test system: SK-MEL-28 melanoma
HCT-15 colon = test system: HCT-15 colon
COLO 205 colon = test system: COLO 205 colon

Structure (SMILES) | GI50 (NCI/ADR-RES ovarian) | TGI (NCI/ADR-RES ovarian) | GI50 (IGROV1 ovarian) | TGI (IGROV1 ovarian) | GI50 (SF-268 CNS) | TGI (SF-268 CNS) | GI50 (OVCAR-5 ovarian) | TGI (OVCAR-5 ovarian) | GI50 (HT29 colon) | TGI (HT29 colon) | GI50 (M14 melanoma) | TGI (M14 melanoma) | GI50 (SK-MEL-2 melanoma) | TGI (SK-MEL-2 melanoma) | GI50 (SK-MEL-28 melanoma) | TGI (SK-MEL-28 melanoma) | GI50 (HCT-15 colon) | TGI (HCT-15 colon) | GI50 (COLO 205 colon) | TGI (COLO 205 colon)
COc1cc2c(Nc3ccc(Br)cc3F)ncnc2cc1OCC1CCN(C)CC1 | 5.58 µM and > 10 µM | 19.1 µM and > 10 µM | 0.408 µM and 0.398 µM | 3.61 µM and 5.27 µM | 3.24 µM and 6.18 µM | 15 µM and > 10 µM | 2.65 µM and 3.23 µM | 18.7 µM and > 10 µM | 2.38 µM and 3.39 µM | 10.8 µM and > 10 µM | 1.91 µM and 1.74 µM | 3.62 µM and 3.66 µM | 5.33 µM and > 10 µM | 10.9 µM and > 10 µM | 1.68 µM and 1.78 µM | 3.27 µM and 4.2 µM | 2.27 µM and 2.95 µM | 11.5 µM and > 10 µM | 3.6 µM and 4.33 µM | 9.88 µM and > 10 µM
COc1cccc(-c2nc(-c3ccc(NC(=O)c4ccccc4)cc3)[nH]c2-c2ccnc(Br)c2)c1 | 3.55 µM | > 100 µM | 6.96 µM | > 100 µM | 6.13 µM | > 100 µM | 6.09 µM | > 100 µM | 2.69 µM | > 100 µM | 2.91 µM | > 100 µM | 2.93 µM | > 100 µM | 3 µM | > 100 µM | 0.78 µM | 3.28 µM | 3.55 µM | > 100 µM
CN(C)c1ccc2cc(-c3cc4c(oc3=O)-c3ccccc3OC4O)c(=O)oc2c1 (stereo not given) | 3.6 µM | 17.1 µM | 5.07 µM | 12 µM | 6.26 µM | 18.7 µM | 5.35 µM | 12.8 µM | 5.73 µM | 21.8 µM | 4.73 µM | 9.31 µM | 3.03 µM | 7.53 µM | 8.24 µM | > 25 µM | 3.81 µM | 8.9 µM | 3.89 µM | 8.19 µM
CCOC(=O)C#Cc1ccc([N+](=O)[O-])cc1 | – | 79.5 µM | – | 4.42 µM | – | 8.62 µM | – | 2.83 µM | – | 2.94 µM | – | 5.34 µM | – | 11.6 µM | – | 23.4 µM | – | 4.33 µM | – | 3.09 µM
COc1ccc(C(=O)C(Br)C(Br)C(=O)O)cc1 (stereo not given) | – | > 100 µM | – | > 100 µM | – | > 100 µM | – | > 100 µM | – | 31 µM | – | > 100 µM | – | > 100 µM | – | > 100 µM | – | > 100 µM | – | 46.8 µM
CCCCNC(=O)Oc1ccc2c(=O)c3sc4c(=O)c5ccccc5c(=O)c4c3c(=O)c2c1 | 1.58 µM | 8.43 µM | 2.23 µM | 6.72 µM | 1.1 µM | 3.56 µM | 2.02 µM | 4.55 µM | 2.31 µM | 5.6 µM | 0.0976 µM | 0.225 µM | 1.37 µM | 3.3 µM | 0.224 µM | 0.524 µM | 0.16 µM | 0.36 µM | 1.81 µM | 3.5 µM
O=C(Nc1ccc(Cl)cc1)c1cc2cc(F)ccc2cc1O | 2.5 µM | 8.05 µM | 2.28 µM | > 100 µM | 2.46 µM | > 100 µM | 3.28 µM | > 100 µM | 3.67 µM | 40 µM | 2.23 µM | > 100 µM | 0.672 µM | 2.74 µM | 1.75 µM | > 100 µM | 1.78 µM | > 100 µM | 2.35 µM | 6.4 µM
COc1c(B(O)O)cccc1-c1nc2c(F)cc3[nH]ncc3c2c2c1CCCC2 | 2.44 µM | 22.1 µM | 1.41 µM | 23.5 µM | 2.1 µM | 18.8 µM | 2.65 µM | 56.8 µM | 3.07 µM | > 44 µM | 3.8 µM | 15.5 µM | 2.42 µM | 6.8 µM | 2.95 µM | 11.3 µM | 2.24 µM | 27.6 µM | 1.61 µM | 6.19 µM
CN(C1=NS(=O)(=O)N=C(N(C)c2ccccc2)O1)c1ccccc1 | – | 70.8 µM | – | 75.7 µM | – | 57 µM | – | 47 µM | – | 54.3 µM | – | 38.9 µM | – | 38 µM | – | 43.3 µM | – | 39.2 µM | – | 46 µM
O=C1CCC2=C3C4CCCCC4C(=O)C4CCCC(OC2C1)C34 (stereo not given) | 0.36 µM | 4.06 µM | 1.64 µM | 6.15 µM | 0.471 µM | > 21.8 µM | > 20.6 µM | > 100 µM | 8.28 µM | > 100 µM | 1.28 µM | 4.23 µM | 1.38 µM | 4.14 µM | 4.84 µM | > 31.4 µM | 0.472 µM | > 21.7 µM | 17.7 µM | > 72.7 µM
NC(=O)c1cc(Cl)ccc1NC(=O)c1ccccc1-c1ccccc1 | 0.459 µM | 26.4 µM | 1.55 µM | > 100 µM | 5.38 µM | > 100 µM | 4.12 µM | 79.1 µM | 0.385 µM | 11.5 µM | 0.427 µM | 3.96 µM | 0.288 µM | 0.799 µM | 3.65 µM | > 100 µM | 0.55 µM | > 100 µM | 0.923 µM | 5.52 µM
